Laboratory results as given in patent US20120316105A1, “Polymyxin Derivates Useful As Antibacterial Agents” (priority 2011, published 2012).
Bridge positions count the residues as written; N and C are the ends. Square brackets hold non-standard residues; d marks the D form. Peptide text beside a SMILES is read from it. * marks the point of attachment. X37 = COc1cc(C(=O)*)cc(-c2ccccc2)n1; X20 = Cc1ccc(-c2cccc(C(=O)*)c2)cc1; X24 = COc1ccc(-c2ccccc2)cc1C(=O)*; X8 = O=C(c1cc(-c2ccccc2)ccc1F)*; Dab = NCC[C@H](N)C(=O)O; Dap = NC[C@H](N)C(=O)O

How the values were obtained:
[1] = tested on: AB-1649, polymyxin-resistant clinical isolate of Acinetobacter baumannii; assay type: cell-based; details: AB-1649, polymyxin-resistant clinical isolate of
In short: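 Broth dilution MIC per CLSI against the polymyxin-resistant A. baumannii isolate, 2-fold dilutions, overnight incubation, visual read of lowest concentration inhibiting growth. Run in duplicate, lower value reported when within 2-fold; MBC per CLSI M26-A guideline.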

[2] = tested on: PA-1646, polymyxin-resistant clinical isolate of Pseudomonas aeruginosa; assay type: cell-based; details: PA-1646, polymyxin-resistant clinical isolate of
In short: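 Broth dilution MIC per CLSI with 2-fold concentration steps, read visually after overnight incubation as lowest concentration inhibiting growth; duplicates within 2-fold, lower value reported, with QC strains and reference compounds. Compounds tested as trifluoroacetate salts, polymyxin B as sulfate.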

[3] = tested on: AB-3167, clinical isolate of Acinetobacter baumannii; assay type: cell-based; details: AB-3167, clinical isolate of
In short: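 Broth dilution MIC per CLSI (M7-A8, M100-S20, M26-A for bactericidal), 2-fold dilution series, overnight incubation, visual read of lowest concentration inhibiting growth versus drug-free control. Duplicates run; lower value reported if within 2-fold, otherwise repeated. Compounds tested as trifluoroacetate salts; QC strains and reference compounds required in range.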

[4] = tested on: Pseudomonas aeruginosa strain PA01; assay type: cell-based; details: strain
In short: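 CLSI broth dilution against P. aeruginosa PA01 with two-fold concentration steps and overnight incubation; MIC is lowest concentration visibly inhibiting growth versus drug-free control, in mg/L. Compounds tested as trifluoroacetate salts, in duplicate, lower value reported if within 2-fold; control organisms and reference compounds included.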

[5] = tested on: EC-1, mouse virulent strain of Escherichia coli; assay type: cell-based; details: E. coli EC-1; overnight incubation, lower of duplicate values; trifluoroacetate salt (Example 1 and PMB sulfate)
In short: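 Compounds were tested mostly as trifluoroacetate salts. Duplicate CLSI broth-dilution MICs were read visually after overnight incubation over 2-fold dilutions, with the lower of duplicates within 2-fold taken. QC organisms and reference drugs were included in each run.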

[6] = tested on: AB-1649, polymyxin-resistant clinical isolate of Acinetobacter baumannii; assay type: cell-based; details: AB-1649, polymyxin-resistant clinical isolate of; remark: listed apart in the source
In short: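 MIC and MBC were measured by CLSI broth dilution methods (M7-A8, M100-S20, M26-A) against a polymyxin-resistant clinical isolate and reported in mg/L. Compounds were tested as trifluoroacetate salts, with one exception tested as the sulfate.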

[7] = Cytotoxicity assay (LDH release), hRPTEC; assay type: cell-based, human; details: human
In short: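 hRPTEC grown 72 h in REGM, then exposed to compounds at 100, 67, 44, 30, 20 and 13 micromolar for 24 h at 37° C, 5% CO2. LDH released into supernatant measured; TC50 (micromolar) derived. Compounds tested as trifluoroacetate salts unless otherwise noted.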

[8] = tested on: PA-1646, polymyxin-resistant clinical isolate of Pseudomonas aeruginosa; assay type: cell-based; details: PA-1646, polymyxin-resistant clinical isolate of; remark: listed apart in the source
In short: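 Broth dilution MIC and bactericidal (MBC) testing per CLSI methods (M7-A8, M100-S20, M26-A) against polymyxin-resistant clinical P. aeruginosa isolate PA-1646. Compounds tested as trifluoroacetate salts, one as sulfate salt; values in mg/L.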

Row | SMILES | AB-1649 MIC [1] [mg/L] | PA-1646 MIC [2] [mg/L] | AB-3167 MIC [3] [mg/L] | PA01 MIC [4] [mg/L] | EC-1 MIC [5] [mg/L] | AB-1649 MBC [6] [mg/L] | CC50 at 24 h [7] [µM] | PA-1646 MBC [8] [mg/L]
1 | CC(C)C[C@@H]1NC(=O)[C@@H](Cc2ccccc2)NC(=O)[C@H](CCN)NC(=O)[C@@H](NC(=O)[C@H](CN)NC(=O)[C@@H](NC(=O)[C@H](CCN)NC(=O)c2cc(-c3ccccc3)ccc2F)[C@@H](C)O)CCNC(=O)[C@H]([C@@H](C)O)NC(=O)[C@H](CCN)NC(=O)[C@H](CCN)NC1=O [Example 34] (X8-[Dab]T[Dap][Dab][Dab][dF]L[Dab][Dab]T; lactam 4-C) | 16 | 2 | 0.25 | 0.5 | 0.125 | 16 | 28 | 8
2 | COc1cc(C(=O)N[C@@H](CCN)C(=O)N[C@H](C(=O)N[C@@H](CN)C(=O)N[C@H]2CCNC(=O)[C@H]([C@@H](C)O)NC(=O)[C@H](CCN)NC(=O)[C@H](CCN)NC(=O)[C@H](CC(C)C)NC(=O)[C@@H](Cc3ccccc3)NC(=O)[C@H](CCN)NC2=O)[C@@H](C)O)cc(-c2ccccc2)n1 [Example 35] (X37-[Dab]T[Dap][Dab][Dab][dF]L[Dab][Dab]T; lactam 4-C) | 4 | 1 | 0.5 | 0.5 | 0.25 | 4 | 24 | 1
3 | COc1ccc(-c2ccccc2)cc1C(=O)N[C@@H](CCN)C(=O)N[C@H](C(=O)N[C@@H](CN)C(=O)N[C@H]1CCNC(=O)[C@H]([C@@H](C)O)NC(=O)[C@H](CCN)NC(=O)[C@H](CCN)NC(=O)[C@H](CC(C)C)NC(=O)[C@@H](Cc2ccccc2)NC(=O)[C@H](CCN)NC1=O)[C@@H](C)O [Example 36] (X24-[Dab]T[Dap][Dab][Dab][dF]L[Dab][Dab]T; lactam 4-C) | 4 | 2 | 0.25 | 0.5 | 0.5 | 4 | 19 | 2
4 | Cc1ccc(-c2cccc(C(=O)N[C@@H](CCN)C(=O)N[C@H](C(=O)N[C@@H](CN)C(=O)N[C@H]3CCNC(=O)[C@H]([C@@H](C)O)NC(=O)[C@H](CCN)NC(=O)[C@H](CCN)NC(=O)[C@H](CC(C)C)NC(=O)[C@@H](Cc4ccccc4)NC(=O)[C@H](CCN)NC3=O)[C@@H](C)O)c2)cc1 [Example 37] (X20-[Dab]T[Dap][Dab][Dab][dF]L[Dab][Dab]T; lactam 4-C) | 4 | 2 | 1 | 2 | 0.5 | 4 | 18 | 4
